According to ChEMBL document CHEMBL2074161, “Substrate upregulation of the human small intestinal peptide transporter, hPepT1” (J Physiol, 1998):
Peptide text beside a SMILES is read from it.

Target: T1, Solute carrier family 15 member 1 (Homo sapiens) (UniProt P46059)
T1 sequence (whole entry): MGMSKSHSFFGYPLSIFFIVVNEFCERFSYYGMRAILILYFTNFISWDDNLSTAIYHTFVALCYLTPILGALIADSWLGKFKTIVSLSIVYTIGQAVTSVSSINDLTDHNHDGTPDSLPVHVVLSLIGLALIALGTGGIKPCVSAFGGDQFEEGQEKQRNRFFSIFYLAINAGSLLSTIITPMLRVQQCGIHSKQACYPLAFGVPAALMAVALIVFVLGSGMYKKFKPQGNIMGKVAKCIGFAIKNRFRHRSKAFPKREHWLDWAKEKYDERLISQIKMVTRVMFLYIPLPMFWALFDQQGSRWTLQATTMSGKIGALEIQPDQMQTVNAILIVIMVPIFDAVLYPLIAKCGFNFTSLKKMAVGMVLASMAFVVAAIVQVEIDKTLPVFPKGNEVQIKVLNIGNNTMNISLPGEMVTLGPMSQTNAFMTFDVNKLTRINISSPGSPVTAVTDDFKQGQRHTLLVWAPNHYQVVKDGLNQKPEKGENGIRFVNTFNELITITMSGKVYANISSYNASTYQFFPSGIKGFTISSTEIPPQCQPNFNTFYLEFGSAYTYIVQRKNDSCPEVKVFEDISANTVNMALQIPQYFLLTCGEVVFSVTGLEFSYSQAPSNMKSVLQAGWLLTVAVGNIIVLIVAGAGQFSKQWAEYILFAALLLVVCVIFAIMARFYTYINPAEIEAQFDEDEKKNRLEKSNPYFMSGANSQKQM
Experiment: TP_TRANSPORTER: upregulation of mRNA and protein in Caco-2 cells
Type: functional, cell-based

NCC(=O)N[C@@H](CCC(N)=O)C(=O)O (H-Gly-Gln-OH)
Activity: inducer [+]
